Test results taken from PubChem BioAssay AID1963983 (Molecular Pharmacology Branch, DTP, NCI, 2024).

Test system: 186277-243-T-J2-PDC multi-cell spheroid viability
Experiment: Anticancer human tumor 186277-243-T-J2-PDC patient-derived colon adenocarcinoma cell line growth inhibition [PI3K]
Conditions: for viability, T/C: stronger effect = lower value
From the text: Combinatorial screen of targeted agents with the PI3K inhibitors inavolisib, alpelisib, duvelisib, and copanlisib in multi-cell type tumor spheroids
A high-throughput screen of multi-cell type tumor spheroids was designed to identify active combinations of targeted small molecules and PI3K pathway inhibitors. Complex spheroids include a stromal component modeled by human endothelial cells (HUVEC) and fibroblasts modeled by human mesenchymal stem cells (MSCs). The concentration ranges selected for each drug and investigational agent were based upon clinically achievable concentrations if the clinical Cmax of the agent was known.
Compounds. The drugs and investigational agents: inavolisib (NSC800729), alpelisib (NSC765974), duvelisib (NSC772469), copanlisib (NSC816437), ipatasertib (NSC767898), afuresertib (NSC778305), talazoparib (NSC767125), sapanisertib (NSC764658), selumetinib (NSC741078), tovorafenib (DAY101, NSC766906), vemurafenib (NSC761431), ravoxertinib (NSC781343), sotorasib (NSC818433), MRTX1133 (NSC 836407), abemaciclib (NSC 768073), palbociclib (NSC758247), venetoclax (NSC 766270), SY5609 (NSC837396), enzalutamide (NSC755605), and darolutamide (NSC825331), were obtained from the National Cancer Institute (NCI) Developmental Therapeutics Program Chemical Repository. The FDA-approved anticancer drug set is available from the NCI Developmental Therapeutics Program. […] The stock solutions were prepared in dimethyl sulfoxide (DMSO, Sigma-Aldrich, St. Louis, MO, cat. D2650) at 800-fold the tested concentration and stored at -70 degrees C prior to their use. All drugs and investigational agents were tested over a range starting from a high concentration at or near the clinical Cmax and decreasing in half-log increments. If the clinical Cmax for an agent had not been determined, the highest concentration tested was 10 microM.
Cell Culture. All cells were maintained in an incubator at 37 degrees C and 5% CO2 with 95% humidity. The PDC lines were cultured according to standard operating procedures established by the NCI PDMR (https://pdmr.cancer.gov/sops/default.htm). All PDCs were thawed and cultured in Matrigel-coated flasks prepared with a working solution of 1X Ham's F-12 nutrient mix, without supplementation (Invitrogen, Waltham, MA, cat. 11765054), 100 U/mL penicillin-streptomycin (Invitrogen, cat. 15140122), and 2.5% Matrigel (Corning Inc., Corning, NY, cat. 354248) for the first three passages. The 354836-022-R-J1-PDC, 475296-252-R-J1-PDC, and 997726-040-R-J2-PDC lines were cultured in 6A media, which includes advanced DMEM/F-12 (Thermo Fisher Scientific, cat. 12634028), 10 mM HEPES (Thermo Fisher Scientific, cat. 15630080), 1X GlutaMAX supplement (Thermo Fisher Scientific, cat. 35050061), 0.1 mg/mL primocin (InvivoGen, San Diego, CA, cat. ant-pm-2), 10% defined fetal bovine serum, heat inactivated (HyClone Laboratories Inc., Logan, UT, cat. SH30070.03HI), 50% L-WRN conditioned media (ATCC, cat. CRL-3276), 1.25 mM N-Acetyl-L-cysteine (Sigma-Aldrich, cat. A9165), 10 mM nicotinamide (Sigma-Aldrich, cat. N0636), 1X B-27 supplement (Thermo Fisher Scientific, cat. 17504044), 1X N-2 supplement (Thermo Fisher Scientific, cat. 17502048), and 10 microM Y-27632 dihydrochloride (Tocris Bioscience, Bristol, United Kingdom, cat. 1254). The 624824-186-R-J2-PDC line was cultured in 6C/Colon 1B media, which includes all 6A media components plus 50 ng/mL human EGF recombinant protein (Thermo Fisher Scientific, cat. PHG0311). […]

[1] = curve of first compound, second compound 0.00316 µM
[2] = curve of first compound, second compound 0.01 µM
[3] = curve of first compound, second compound 0.0316 µM
[4] = curve of first compound, second compound 0.1 µM
[5] = curve of first compound, second compound 0.316 µM
[6] = curve of first compound, second compound 1 µM
[7] = second compound 0.00316 µM, first compound 0.0316 µM
[8] = second compound 0.00316 µM, first compound 0.1 µM
[9] = second compound 0.00316 µM, first compound 0.316 µM
[10] = second compound 0.00316 µM, first compound 1 µM
[11] = second compound 0.00316 µM, first compound 3.16 µM
[12] = second compound 0.00316 µM, first compound 10 µM
[13] = second compound 0.01 µM, first compound 0.0316 µM
[14] = second compound 0.01 µM, first compound 0.1 µM
[15] = second compound 0.01 µM, first compound 0.316 µM
[16] = second compound 0.01 µM, first compound 1 µM
[17] = second compound 0.01 µM, first compound 3.16 µM
[18] = second compound 0.01 µM, first compound 10 µM
[19] = second compound 0.0316 µM, first compound 0.0316 µM
[20] = second compound 0.0316 µM, first compound 0.1 µM
[21] = second compound 0.0316 µM, first compound 0.316 µM
[22] = second compound 0.0316 µM, first compound 1 µM
[23] = second compound 0.0316 µM, first compound 3.16 µM
[24] = second compound 0.0316 µM, first compound 10 µM
[25] = second compound 0.1 µM, first compound 0.0316 µM
[26] = second compound 0.1 µM, first compound 0.1 µM
[27] = second compound 0.1 µM, first compound 0.316 µM
[28] = second compound 0.1 µM, first compound 1 µM
[29] = second compound 0.1 µM, first compound 3.16 µM
[30] = second compound 0.1 µM, first compound 10 µM
[31] = second compound 0.316 µM, first compound 0.0316 µM
[32] = second compound 0.316 µM, first compound 0.1 µM
[33] = second compound 0.316 µM, first compound 0.316 µM
[34] = second compound 0.316 µM, first compound 1 µM
[35] = second compound 0.316 µM, first compound 3.16 µM
[36] = second compound 0.316 µM, first compound 10 µM
[37] = second compound 1 µM, first compound 0.0316 µM
[38] = second compound 1 µM, first compound 0.1 µM
[39] = second compound 1 µM, first compound 0.316 µM
[40] = second compound 1 µM, first compound 1 µM
[41] = second compound 1 µM, first compound 3.16 µM
[42] = second compound 1 µM, first compound 10 µM
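Note: spheroids exposed to compounds for seven days before viability reading.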
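Throughout, for viability, T/C: 100% = DMSO vehicle control viability.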

CCCS(=O)(=O)Nc1ccc(F)c(C(=O)c2c[nH]c3ncc(-c4ccc(Cl)cc4)cc23)c1F + COc1c(OCCCN2CCOCC2)ccc2c3n(c(=NC(=O)c4cnc(N)nc4)nc12)CCN3
IC50 [1]: 4.9 µM
IC50 [2]: 5.6 µM
IC50 [3]: 5.16 µM
IC50 [4]: < 0.0316 µM
IC50 [5]: < 0.0316 µM
IC50 [6]: < 0.0316 µM
viability, T/C [7]: 114%
viability, T/C [8]: 99.1%
viability, T/C [9]: 84.9%
viability, T/C [10]: 83.5%
viability, T/C [11]: 79.4%
viability, T/C [12]: 14.2%
viability, T/C [13]: 105%
viability, T/C [14]: 90.1%
viability, T/C [15]: 110%
viability, T/C [16]: 90.3%
viability, T/C [17]: 87%
viability, T/C [18]: 13.8%
viability, T/C [19]: 81.1%
viability, T/C [20]: 68.5%
viability, T/C [21]: 96.3%
viability, T/C [22]: 88.2%
viability, T/C [23]: 77.9%
viability, T/C [24]: 12.2%
viability, T/C [25]: 23.1%
viability, T/C [26]: 27.3%
viability, T/C [27]: 29.4%
viability, T/C [28]: 46.7%
viability, T/C [29]: 46%
viability, T/C [30]: 7.08%
viability, T/C [31]: 7.65%
viability, T/C [32]: 8.23%
viability, T/C [33]: 7.39%
viability, T/C [34]: 8.35%
viability, T/C [35]: 12.3%
viability, T/C [36]: 2.99%
viability, T/C [37]: 3.27%
viability, T/C [38]: 3.82%
viability, T/C [39]: 3.96%
viability, T/C [40]: 4.58%
viability, T/C [41]: 7.64%
viability, T/C [42]: 2.38%

CC1(C)CCC(CN2CCN(c3ccc(C(=O)NS(=O)(=O)c4ccc(NCC5CCOCC5)c([N+](=O)[O-])c4)c(Oc4cnc5[nH]ccc5c4)c3)CC2)=C(c2ccc(Cl)cc2)C1 + COc1c(OCCCN2CCOCC2)ccc2c3n(c(=NC(=O)c4cnc(N)nc4)nc12)CCN3
IC50 [1]: > 10 µM
IC50 [2]: > 10 µM
IC50 [3]: > 10 µM
IC50 [4]: < 0.0316 µM
IC50 [5]: < 0.0316 µM
IC50 [6]: < 0.0316 µM
viability, T/C [7]: 110%
viability, T/C [8]: 96.2%
viability, T/C [9]: 110%
viability, T/C [10]: 108%
viability, T/C [11]: 93%
viability, T/C [12]: 115%
viability, T/C [13]: 99.1%
viability, T/C [14]: 105%
viability, T/C [15]: 96.5%
viability, T/C [16]: 109%
viability, T/C [17]: 82.6%
viability, T/C [18]: 94%
viability, T/C [19]: 80.8%
viability, T/C [20]: 89.3%
viability, T/C [21]: 80.5%
viability, T/C [22]: 78.5%
viability, T/C [23]: 76.1%
viability, T/C [24]: 71.2%
viability, T/C [25]: 26.6%
viability, T/C [26]: 20.3%
viability, T/C [27]: 21.3%
viability, T/C [28]: 21.3%
viability, T/C [29]: 23.9%
viability, T/C [30]: 16.9%
viability, T/C [31]: 5.48%
viability, T/C [32]: 11.5%
viability, T/C [33]: 4.51%
viability, T/C [34]: 6.03%
viability, T/C [35]: 6.17%
viability, T/C [36]: 4.39%
viability, T/C [37]: 2.94%
viability, T/C [38]: 4.42%
viability, T/C [39]: 3.06%
viability, T/C [40]: 2.7%
viability, T/C [41]: 5.01%
viability, T/C [42]: 2.15%

Cc1nc(NC(=O)N2CCCC2C(N)=O)sc1-c1ccnc(C(C)(C)C(F)(F)F)c1 (stereo not given)
viability, T/C (compound 0.1 µM): 104% [middle of 8 runs]
viability, T/C (compound 0.316 µM): 110% [middle of 8 runs]
viability, T/C (compound 1 µM): 102% [middle of 8 runs]
viability, T/C (compound 3.16 µM): 54.1% [middle of 8 runs]
viability, T/C (compound 10 µM): 16.6% [middle of 8 runs]
IC50 (compound alone, run of 05/08/2023): 3.62 µM [middle of 8 runs]
